Measurements reported in patent publication US20190031618A1, “BENZIMIDAZOLE DERIVATIVES USEFUL AS CB-1 INVERSE AGONISTS” (Janssen Pharmaceutica NV, priority 2015, published 2019).
pEC50: −log10 of the molar value. Blank lines part the entries; values can stand above or below the molecule they belong to.

Assays:
[1] = target: Human CB1R (Cannabinoid receptor 1) (Homo sapiens, UniProt P21554); assay: CB-1 in vitro cAMP (HTRF) assay; assay type: cell-based; details: HEK cells, cAMP HTRF, 250 nM forskolin; mean where tested more than once; read-out: CB1 HEK_cAMP EC50
Human CB1R (Cannabinoid receptor 1), sequence (P21554 whole entry): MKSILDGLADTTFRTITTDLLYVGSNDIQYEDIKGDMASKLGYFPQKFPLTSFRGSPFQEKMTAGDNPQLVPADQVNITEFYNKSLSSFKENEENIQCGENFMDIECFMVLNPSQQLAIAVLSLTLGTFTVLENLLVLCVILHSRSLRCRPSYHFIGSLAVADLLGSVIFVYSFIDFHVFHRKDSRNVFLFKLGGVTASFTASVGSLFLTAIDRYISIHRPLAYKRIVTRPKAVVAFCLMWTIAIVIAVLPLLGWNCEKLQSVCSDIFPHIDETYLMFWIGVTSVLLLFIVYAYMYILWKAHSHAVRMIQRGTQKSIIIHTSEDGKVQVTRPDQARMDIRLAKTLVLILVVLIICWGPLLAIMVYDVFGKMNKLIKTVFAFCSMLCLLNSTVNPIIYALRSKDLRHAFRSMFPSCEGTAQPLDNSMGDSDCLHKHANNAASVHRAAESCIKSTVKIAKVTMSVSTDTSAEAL
Procedure, shortened: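 Intracellular cAMP from HTRF ratio (d2-cAMP vs Eu-cryptate anti-cAMP), converted to nM via per-plate standards, in stable human CB1R HEK-293 cells.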

DIO mice = assay: Five-Day Study in DIO Mice: food intake, body weight, plasma insulin, fed blood glucose; assay type: in vivo; details: for Plasma Insulin: 30 mg/kg, day 5, two hours after dosing, (Std Err)
From the text: Male 14-20-week old diet-induced obese mice are ordered from Taconic. Mice were started on a 60% fat diet (D12492, Research Diets, New Brunswick, N.J.) at 6 weeks of age. Mice are single-housed.
Male Sprague Dawley rats are ordered from Charles River (225-250 gm upon arrival). They are fed standard chow diet (Purina 5001) and housed 2 per cage. Male C57bl/6j mice are ordered from Charles River at 22-25 g and housed 3 per cage. They are fed standard chow (Purina 5001). All animals are housed in a temperature-controlled room with 12-hour light/dark cycle. Animals are given food and water ad libitum, except as noted.
Test compounds are administered by oral gavage (5 ml kg^−1 or 10 ml kg^−1).

[2] = 30 mg/kg daily oral, Day 1, (Std Err)
[3] = 30 mg/kg daily oral, Day 2, (Std Err)
[4] = 30 mg/kg daily oral, Day 3, (Std Err)
[5] = 30 mg/kg daily oral, Day 4, (Std Err)
[6] = 30 mg/kg group, Day 0, (Std Err)

SMILES: O=C(O)c1cc(F)cc(CN2CCC(n3c(C4CC4)nc4ccc(C(c5ccc(Cl)cc5)c5ccc(Cl)cc5)cc43)CC2)c1 [Example 89]
pEC50 [1]: 8.14

SMILES: O=C(O)c1ccc(F)c(CN2CCC(n3c(C4CC4)nc4ccc(C(c5ccc(Cl)cc5)c5ccc(Cl)cc5)cc43)CC2)c1 [Example 92]
pEC50 [1]: 7.80

SMILES: O=C(O)c1ccc(CN2CCC(n3c(C4CC4)nc4ccc(C(c5ccc(Cl)cc5)c5ccc(Cl)cc5)cc43)CC2)nc1 [Example 124]
pEC50 [1]: 7.46

SMILES: O=C(O)c1cccc(CN2CCC(n3c(C4CC4)nc4ccc(C(c5ccc(Cl)cc5)c5ccc(Cl)cc5)cc43)CC2)n1 [Example 125]
pEC50 [1]: 7.75

SMILES: O=C(O)c1ccc(CN2CCC(n3c(C4CC4)nc4ccc(C(c5ccc(Cl)cc5)c5ccc(Cl)cc5)cc43)CC2)o1 [Example 129]
pEC50 [1]: 7.70

SMILES: O=C(O)c1cccc(CN2CCC(n3c(C4CC4)nc4ccc(C(c5ccc(Cl)cc5)c5ccc(Cl)cc5)cc43)CC2)c1 [Example 148]
pEC50 [1]: 8.02

SMILES: O=C(O)c1csc(S(=O)(=O)N2CCC(n3c(C4CC4)nc4ccc(C(c5ccc(Cl)cc5)c5ccc(Cl)cc5)cc43)CC2)c1 [Example 221]
pEC50 [1]: 8.07

SMILES: O=S(=O)(N1CCC(Cn2c(C3CC3)nc3ccc(C(c4ccc(Cl)cc4)c4ccc(Cl)cc4)cc32)CC1)C(F)(F)F [Example 316]
pEC50 [1]: 8.55

SMILES: CCc1nc2ccc(C(c3ccc(Cl)cc3)c3ccc(Cl)cc3)cc2n1C1CCN(S(=O)(=O)C(F)(F)F)CC1 [Example 328]
pEC50 [1]: 8.08
Mean Body Weight (DIO mice; [2]): 41.2 (0.7) Grams
Mean Daily Food Intake (DIO mice; [2]): 0.5 (0.1) Grams
Mean Body Weight (DIO mice; [3]): 39.6 (0.6) Grams
Mean Daily Food Intake (DIO mice; [3]): 0.5 (0.1) Grams
Mean Body Weight (DIO mice; [4]): 38.6 (0.6) Grams
Mean Daily Food Intake (DIO mice; [4]): 0.7 (0.1) Grams
Fed Blood Glucose (DIO mice; [5]): 154 (7) mg/dL
Mean Body Weight (DIO mice; [5]): 38.2 (0.7) Grams
Mean Daily Food Intake (DIO mice; [5]): 1.2 (0.1) Grams
Fed Blood Glucose (DIO mice; [6]): 183 (9) mg/dL
Mean Body Weight (DIO mice; [6]): 43.6 (0.7) Grams
Plasma Insulin (DIO mice): 1.31 (0.13) ng/mL

Further lines, with some results ahead:

pEC50 [1]: 7.75
SMILES: O=C(O)c1ccc(S(=O)(=O)N2CCC(n3c(C4CC4)nc4ccc(C(c5ccc(Cl)cc5)c5ccc(Cl)cc5)cc43)CC2)o1 [Example 232]

pEC50 [1]: 7.74
SMILES: O=C(O)c1cccc(S(=O)(=O)N2CCC(n3c(C4CC4)nc4ccc(C(c5ccc(Cl)cc5)c5ccc(Cl)cc5)cc43)CC2)c1 [Example 242]

pEC50 [1]: 8.43
SMILES: O=S(=O)(c1cccc(O)c1)N1CCC(n2c(C3CC3)nc3ccc(C(c4ccc(Cl)cc4)c4ccc(Cl)cc4)cc32)CC1 [Example 259]

pEC50 [1]: 8.03
SMILES: O=C(O)c1ccc(S(=O)(=O)N2CCC(n3c(C4CC4)nc4ccc(C(c5ccc(Cl)cc5)c5ccc(Cl)cc5)cc43)CC2)cc1 [Example 276]

pEC50 [1]: 8.28
SMILES: CCc1nc2ccc(C(c3ccc(Cl)cc3)c3ccc(Cl)cc3)cc2n1CC1CCN(S(=O)(=O)C(F)(F)F)CC1 [Example 315]

pEC50 [1]: 8.16
SMILES: O=S(=O)(N1CCC(n2c(C3CCC3)nc3ccc(C(c4ccc(Cl)cc4)c4ccc(Cl)cc4)cc32)CC1)C(F)(F)F [Example 318]

pEC50 [1]: 7.16
SMILES: COc1ccc(C(c2ccc(OC)cc2)c2ccc3nc(C4CCC4)n(C4CCN(S(=O)(=O)C(F)(F)F)CC4)c3c2)cc1 [Example 320]

pEC50 [1]: 8.25
SMILES: O=S(=O)(N1CCC(n2c(C3CC3)nc3ccc(C(c4ccc(Cl)cc4)c4ccc(Cl)cc4)cc32)CC1)C(F)(F)F [Example 335]
Mean Body Weight (DIO mice; [2]): 42.8 (0.8) Grams
Mean Daily Food Intake (DIO mice; [2]): 0.4 (0.1) Grams
Mean Body Weight (DIO mice; [3]): 41.4 (0.7) Grams
Mean Daily Food Intake (DIO mice; [3]): 0.5 (0.1) Grams
Mean Body Weight (DIO mice; [4]): 40.3 (0.6) Grams
Mean Daily Food Intake (DIO mice; [4]): 0.5 (0.1) Grams
Fed Blood Glucose (DIO mice; [5]): 160 (6) mg/dL
Mean Body Weight (DIO mice; [5]): 39.4 (0.6) Grams
Mean Daily Food Intake (DIO mice; [5]): 1.1 (0.1) Grams
Fed Blood Glucose (DIO mice; [6]): 187 (9) mg/dL
Mean Body Weight (DIO mice; [6]): 45.4 (0.7) Grams
Plasma Insulin (DIO mice): 2.72 (0.61) ng/mL

pEC50 [1]: 8.22
SMILES: CCc1nc2ccc(C(c3ccc(Cl)cc3)c3nccs3)cc2n1C1CCN(S(=O)(=O)C(F)(F)F)CC1 (stereo not drawn) [Example 400]
